By pIC50 is commonly meant the IC50 on a negative log10 scale, so that one unit is a factor of ten. A low value points to a large IC50.

In experiment [1] the test system is A549. The experiment is described as follows: cells. As to conditions: Homo sapiens, A549, 72 h.
Description: Antiproliferative activity against human A549 cells after 72 hrs by MTT assay
The test system of experiment [2] is HepG2. Nature of the experiment: cells. As to conditions: Homo sapiens, HepG2, 72 h.
In experiment [3] the test system is MCF7. The experiment is described as follows: cells. As to conditions: Homo sapiens, MCF7, 72 h.
Experiment [4] has as its target Hepatocyte growth factor receptor (Homo sapiens, UniProt P08581). The experiment is described as follows: Inhibition of c-MET (unknown origin) using FAM-labeled peptide as substrate incubated for 10 mins followed by substrate addition by HTRF assay. For orientation: Time-resolved FRET reads energy transfer from a long-lived donor to a nearby acceptor.
For experiment [5], the system named is HepG2. The experiment is described as follows: Induction of apoptosis in human HepG2 cells assessed as necrotic cells at 0.5 uM after 48 hrs by Annexin V-FITC/PI staining based flow cytometry (reference value: 1.81%). In kind it is functional. In general terms: Flow cytometry measures light scatter and fluorescence of single cells or particles in a stream.

Experiment [6] has as its system HepG2. The experiment is described as follows: Induction of apoptosis in human HepG2 cells assessed as viable cells at 0.5 uM after 48 hrs by Annexin V-FITC/PI staining based flow cytometry (reference value: 91.69%). In kind it is functional. The following applies: HepG2, 48 h, read-out: Activity.
The test system of experiment [7] is HepG2. The experiment is described as follows: Induction of apoptosis in human HepG2 cells assessed as early apoptotic cells at 0.5 uM after 48 hrs by Annexin V-FITC/PI staining based flow cytometry (reference value: 2.97%). In kind it is functional.
Experiment [8] deals with HepG2. The experiment is described as follows: Induction of apoptosis in human HepG2 cells assessed as late apoptotic cells at 0.5 uM after 48 hrs by Annexin V-FITC/PI staining based flow cytometry (reference value: 3.53%). Type of experiment: functional.
The target of experiment [9] is Platelet-derived growth factor receptor alpha (Homo sapiens, UniProt P16234). The experiment is described as follows: Inhibition of PDGFRalpha (unknown origin) using FAM-labeled peptide as substrate incubated for 10 mins followed by substrate addition by HTRF assay.
Experiment [10] has as its target Epidermal growth factor receptor (Homo sapiens, UniProt P00533). Nature of the experiment: Inhibition of EGFR (unknown origin) using FAM-labeled peptide as substrate incubated for 10 mins followed by substrate addition by HTRF assay.
The target of experiment [11] is Mast/stem cell growth factor receptor Kit (Homo sapiens, UniProt P10721). The experiment is described as follows: Inhibition of c-KIT (unknown origin) using FAM-labeled peptide as substrate incubated for 10 mins followed by substrate addition by HTRF assay.
Experiment [12] concerns the target T1, Receptor-type tyrosine-protein kinase FLT3 (Homo sapiens, UniProt P36888).
T1 sequence (P36888 whole entry): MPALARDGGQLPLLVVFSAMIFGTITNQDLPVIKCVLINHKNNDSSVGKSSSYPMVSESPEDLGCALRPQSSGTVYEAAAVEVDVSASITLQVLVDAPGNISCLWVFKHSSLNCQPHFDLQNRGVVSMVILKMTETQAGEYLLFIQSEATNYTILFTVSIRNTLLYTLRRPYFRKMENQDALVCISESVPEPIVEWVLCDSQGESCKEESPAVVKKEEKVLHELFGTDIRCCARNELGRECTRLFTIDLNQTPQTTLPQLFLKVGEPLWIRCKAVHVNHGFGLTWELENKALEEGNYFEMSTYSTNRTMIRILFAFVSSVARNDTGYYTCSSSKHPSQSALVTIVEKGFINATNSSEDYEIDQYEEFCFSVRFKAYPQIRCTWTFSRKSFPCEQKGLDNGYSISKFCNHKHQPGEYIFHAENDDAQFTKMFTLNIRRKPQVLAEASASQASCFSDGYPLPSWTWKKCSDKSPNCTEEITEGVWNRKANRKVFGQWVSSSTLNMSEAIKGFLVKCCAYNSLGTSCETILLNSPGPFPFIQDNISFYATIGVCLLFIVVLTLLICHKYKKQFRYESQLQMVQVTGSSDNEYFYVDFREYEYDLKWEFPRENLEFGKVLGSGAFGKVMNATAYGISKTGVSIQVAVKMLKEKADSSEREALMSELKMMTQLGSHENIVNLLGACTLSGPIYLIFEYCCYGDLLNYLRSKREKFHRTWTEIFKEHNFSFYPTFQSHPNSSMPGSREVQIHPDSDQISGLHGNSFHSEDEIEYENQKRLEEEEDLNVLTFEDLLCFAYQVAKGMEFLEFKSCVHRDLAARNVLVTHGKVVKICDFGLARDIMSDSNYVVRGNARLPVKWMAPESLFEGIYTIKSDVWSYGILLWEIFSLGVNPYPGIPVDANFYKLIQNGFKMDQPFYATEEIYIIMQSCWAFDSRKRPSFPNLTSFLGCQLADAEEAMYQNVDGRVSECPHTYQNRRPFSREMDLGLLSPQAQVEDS
The experiment is described as follows: Inhibition of FLT3 (unknown origin) using FAM-labeled peptide as substrate incubated for 10 mins followed by substrate addition by HTRF assay.

In experiment [13] the target is Vascular endothelial growth factor receptor 3 (Homo sapiens, UniProt P35916). Nature of the experiment: Inhibition of FLT4 (unknown origin) using FAM-labeled peptide as substrate incubated for 10 mins followed by substrate addition by HTRF assay.
Experiment [14] deals with Platelet-derived growth factor receptor beta (Homo sapiens, UniProt P09619). The experiment is described as follows: Inhibition of PDGFRbeta (unknown origin) using FAM-labeled peptide as substrate incubated for 10 mins followed by substrate addition by HTRF assay.
Experiment [15] deals with ALK tyrosine kinase receptor (Homo sapiens, UniProt Q9UM73). Nature of the experiment: Inhibition of ALK (unknown origin) using FAM-labeled peptide as substrate incubated for 10 mins followed by substrate addition by HTRF assay.
ALK tyrosine kinase receptor, sequence (Q9UM73 whole entry): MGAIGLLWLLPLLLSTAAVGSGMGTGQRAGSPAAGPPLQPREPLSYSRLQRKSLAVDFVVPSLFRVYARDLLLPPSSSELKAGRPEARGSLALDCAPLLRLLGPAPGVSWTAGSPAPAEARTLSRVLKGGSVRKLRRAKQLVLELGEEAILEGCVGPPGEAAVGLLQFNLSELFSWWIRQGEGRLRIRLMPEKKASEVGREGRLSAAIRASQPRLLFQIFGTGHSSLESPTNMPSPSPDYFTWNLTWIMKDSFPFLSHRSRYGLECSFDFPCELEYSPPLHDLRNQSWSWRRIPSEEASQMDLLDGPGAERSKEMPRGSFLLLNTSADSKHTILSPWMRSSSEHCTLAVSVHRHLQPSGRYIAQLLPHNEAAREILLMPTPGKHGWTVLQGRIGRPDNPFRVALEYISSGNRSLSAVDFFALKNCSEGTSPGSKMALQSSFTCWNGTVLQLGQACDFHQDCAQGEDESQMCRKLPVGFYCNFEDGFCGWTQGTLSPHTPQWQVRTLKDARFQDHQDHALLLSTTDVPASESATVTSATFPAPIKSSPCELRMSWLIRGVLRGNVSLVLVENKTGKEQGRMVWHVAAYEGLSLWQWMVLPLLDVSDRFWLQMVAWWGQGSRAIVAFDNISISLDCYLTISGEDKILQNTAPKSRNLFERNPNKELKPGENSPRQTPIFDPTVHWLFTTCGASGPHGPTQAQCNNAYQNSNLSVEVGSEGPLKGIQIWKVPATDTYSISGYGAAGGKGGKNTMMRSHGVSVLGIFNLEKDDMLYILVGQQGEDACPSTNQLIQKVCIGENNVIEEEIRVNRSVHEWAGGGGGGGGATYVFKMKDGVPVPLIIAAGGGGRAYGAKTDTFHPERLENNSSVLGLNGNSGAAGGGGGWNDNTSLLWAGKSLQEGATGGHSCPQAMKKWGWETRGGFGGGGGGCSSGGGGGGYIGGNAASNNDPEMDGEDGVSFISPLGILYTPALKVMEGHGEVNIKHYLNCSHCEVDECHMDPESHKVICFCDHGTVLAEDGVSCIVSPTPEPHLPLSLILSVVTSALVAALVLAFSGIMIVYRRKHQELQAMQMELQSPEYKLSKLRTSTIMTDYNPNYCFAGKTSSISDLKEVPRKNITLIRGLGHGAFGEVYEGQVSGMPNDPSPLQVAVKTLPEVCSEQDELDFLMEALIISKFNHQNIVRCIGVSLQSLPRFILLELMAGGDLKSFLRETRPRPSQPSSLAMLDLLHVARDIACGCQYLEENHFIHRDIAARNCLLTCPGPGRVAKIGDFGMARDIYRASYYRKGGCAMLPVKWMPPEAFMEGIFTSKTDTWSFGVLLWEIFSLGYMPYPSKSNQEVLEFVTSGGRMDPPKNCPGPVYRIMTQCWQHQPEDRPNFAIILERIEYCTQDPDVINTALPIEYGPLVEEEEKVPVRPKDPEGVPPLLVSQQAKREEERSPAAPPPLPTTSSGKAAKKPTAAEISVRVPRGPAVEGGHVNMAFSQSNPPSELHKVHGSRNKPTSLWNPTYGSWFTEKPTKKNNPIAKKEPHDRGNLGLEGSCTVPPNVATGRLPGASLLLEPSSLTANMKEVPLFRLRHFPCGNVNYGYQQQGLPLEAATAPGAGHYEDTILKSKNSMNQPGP

pIC50: −log10 of the molar value.

Hepatocyte growth factor receptor, sequence (P08581 whole entry): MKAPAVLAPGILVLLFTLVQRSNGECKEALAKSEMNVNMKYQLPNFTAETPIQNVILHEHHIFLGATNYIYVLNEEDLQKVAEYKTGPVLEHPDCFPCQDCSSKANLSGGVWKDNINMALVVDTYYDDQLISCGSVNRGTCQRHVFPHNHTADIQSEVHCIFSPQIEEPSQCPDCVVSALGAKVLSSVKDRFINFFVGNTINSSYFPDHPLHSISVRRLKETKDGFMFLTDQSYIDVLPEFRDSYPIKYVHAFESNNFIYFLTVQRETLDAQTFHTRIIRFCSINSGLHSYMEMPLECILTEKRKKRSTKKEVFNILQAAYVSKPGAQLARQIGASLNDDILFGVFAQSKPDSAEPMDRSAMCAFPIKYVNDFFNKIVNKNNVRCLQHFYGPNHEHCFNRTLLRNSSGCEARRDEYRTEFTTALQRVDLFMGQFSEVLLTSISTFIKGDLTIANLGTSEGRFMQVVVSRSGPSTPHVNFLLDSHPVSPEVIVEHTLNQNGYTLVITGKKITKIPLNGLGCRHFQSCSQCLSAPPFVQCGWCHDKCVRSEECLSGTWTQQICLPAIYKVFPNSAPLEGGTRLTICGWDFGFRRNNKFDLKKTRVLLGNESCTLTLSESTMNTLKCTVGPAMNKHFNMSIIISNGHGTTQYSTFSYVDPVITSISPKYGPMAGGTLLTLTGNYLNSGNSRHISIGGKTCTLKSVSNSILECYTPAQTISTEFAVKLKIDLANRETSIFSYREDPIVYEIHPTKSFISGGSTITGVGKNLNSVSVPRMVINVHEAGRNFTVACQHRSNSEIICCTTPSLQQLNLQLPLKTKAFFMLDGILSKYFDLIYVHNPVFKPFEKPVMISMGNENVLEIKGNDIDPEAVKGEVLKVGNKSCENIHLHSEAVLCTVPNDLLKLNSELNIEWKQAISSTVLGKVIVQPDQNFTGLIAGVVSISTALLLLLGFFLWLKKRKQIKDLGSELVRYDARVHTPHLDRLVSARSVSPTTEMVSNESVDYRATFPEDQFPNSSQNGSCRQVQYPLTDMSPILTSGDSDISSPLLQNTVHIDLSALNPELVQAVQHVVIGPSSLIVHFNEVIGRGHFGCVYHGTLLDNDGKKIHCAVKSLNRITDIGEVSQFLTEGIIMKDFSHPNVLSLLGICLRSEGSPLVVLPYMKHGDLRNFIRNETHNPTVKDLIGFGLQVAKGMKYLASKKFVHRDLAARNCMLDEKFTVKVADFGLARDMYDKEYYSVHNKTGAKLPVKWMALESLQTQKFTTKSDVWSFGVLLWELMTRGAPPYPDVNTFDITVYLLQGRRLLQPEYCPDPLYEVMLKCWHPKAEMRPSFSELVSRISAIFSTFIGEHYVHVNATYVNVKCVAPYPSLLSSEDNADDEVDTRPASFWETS
Epidermal growth factor receptor, sequence (P00533 whole entry): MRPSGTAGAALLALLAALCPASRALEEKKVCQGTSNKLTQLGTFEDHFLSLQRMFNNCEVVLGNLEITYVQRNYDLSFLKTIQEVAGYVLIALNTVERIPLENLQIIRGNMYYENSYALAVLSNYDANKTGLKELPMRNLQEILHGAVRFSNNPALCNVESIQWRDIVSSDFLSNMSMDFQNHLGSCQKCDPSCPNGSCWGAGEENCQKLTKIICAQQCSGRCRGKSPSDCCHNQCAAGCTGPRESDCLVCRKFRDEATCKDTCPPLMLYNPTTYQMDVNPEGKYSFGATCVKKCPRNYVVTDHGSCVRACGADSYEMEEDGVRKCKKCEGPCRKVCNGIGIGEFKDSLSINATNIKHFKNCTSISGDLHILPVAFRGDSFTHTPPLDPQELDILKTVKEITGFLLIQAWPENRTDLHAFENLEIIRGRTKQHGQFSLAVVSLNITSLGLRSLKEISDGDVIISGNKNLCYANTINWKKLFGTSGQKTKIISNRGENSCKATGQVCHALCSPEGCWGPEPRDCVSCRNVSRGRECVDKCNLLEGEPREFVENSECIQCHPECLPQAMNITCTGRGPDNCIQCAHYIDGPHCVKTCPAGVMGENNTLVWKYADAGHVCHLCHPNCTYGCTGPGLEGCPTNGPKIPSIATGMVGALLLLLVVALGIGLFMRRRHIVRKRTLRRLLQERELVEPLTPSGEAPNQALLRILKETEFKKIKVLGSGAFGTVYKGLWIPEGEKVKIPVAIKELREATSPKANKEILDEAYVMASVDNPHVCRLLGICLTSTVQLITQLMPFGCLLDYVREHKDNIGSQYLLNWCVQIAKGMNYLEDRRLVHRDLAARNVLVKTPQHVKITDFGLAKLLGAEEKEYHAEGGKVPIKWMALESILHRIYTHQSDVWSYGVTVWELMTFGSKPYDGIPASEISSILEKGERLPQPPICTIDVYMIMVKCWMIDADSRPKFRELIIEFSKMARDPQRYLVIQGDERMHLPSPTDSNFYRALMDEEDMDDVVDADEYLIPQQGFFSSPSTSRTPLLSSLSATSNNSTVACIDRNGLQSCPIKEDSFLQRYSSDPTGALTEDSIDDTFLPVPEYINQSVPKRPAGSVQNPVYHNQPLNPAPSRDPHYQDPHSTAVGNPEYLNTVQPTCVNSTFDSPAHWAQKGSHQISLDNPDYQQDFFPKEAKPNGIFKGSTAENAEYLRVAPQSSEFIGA

As for `COc1ccc(-n2c(=O)c(C(=O)Nc3ccc(Oc4ccnc5cc(OCCCN6CCOCC6)c(OC)cc45)c(F)c3)cc3cccnc32)cc1`, the results for the negative logarithm of the IC50 (pIC50) in experiment [1], in experiment [2] and in experiment [3] were 4.71, 5.04 and 4.98, respectively.
In the case of `COc1cc2c(Oc3ccc(NC(=O)c4cc5cccnc5n(-c5ccc(Br)cc5F)c4=O)cc3F)ccnc2cc1OCCCN1CCC(C)CC1`, the pIC50 in experiment [4] was 7.42.
`COc1cc2c(Oc3ccc(NC(=O)c4cc5cccnc5n(-c5ccccc5)c4=O)cc3F)ccnc2cc1OCCCN1CCOCC1`: the figures for the pIC50 in experiment [1], in experiment [2] and in experiment [3] were 4.78, 4.94 and less than 4.40, respectively.
In the same order, the values of `COc1cc2c(Oc3ccc(NC(=O)c4cc5cccnc5n(-c5ccc(C(F)(F)F)cc5Cl)c4=O)cc3F)ccnc2cc1OCCCN1CCOCC1` are 5.38, 5.38 and 5.03.
`COc1cc2c(Oc3ccc(NC(=O)c4cc5cccnc5n(-c5ccc(F)cc5)c4=O)cc3F)ccnc2cc1OCCCN1CCC(C)CC1` showed a pIC50 in [4] of 7.50.
Same read-out and setting: under `COc1cc2c(Oc3ccc(NC(=O)c4cc5cccnc5n(-c5ccc(F)cc5)c4=O)cc3F)ccnc2cc1OCCCN1CCCCC1` stands 8.54.
For the molecule `COc1cc2c(Oc3ccc(NC(=O)c4cc5cccnc5n(-c5ccc(Br)cc5F)c4=O)cc3F)ccnc2cc1OCCCN1CCOCC1`, the pIC50 in experiment [1] is less than 4.40; in experiment [2], less than 4.40; in [3], 5.01.
For the molecule `COc1cc2c(Oc3ccc(NC(=O)c4cc5cccnc5n(-c5ccc(Br)cc5F)c4=O)cc3F)ccnc2cc1OCCCN1CCN(C)CC1`, the pIC50 in experiment [4] was 8.19.
Consider `COc1cc2c(Oc3ccc(NC(=O)c4cc5cccnc5n(-c5ccc(Br)cc5)c4=O)cc3F)ccnc2cc1OCCCN1CCCCC1`, for which the pIC50 in [4] was 7.53.
Turning to `COc1cc2c(Oc3ccc(NC(=O)C4(C(=O)Nc5ccc(F)cc5)CC4)cc3F)ccnc2cc1OCCCN1CCOCC1` [FORETINIB], the Activity came out at 0.64% in [5], 18.51% in experiment [7] and 8.36% in experiment [8]. For the same molecule, the viability at 0.5 µM in experiment [6] stood at 72.5%.
On to `COc1cc2c(Oc3ccc(NC(=O)c4cc5cccnc5n(-c5ccc(Br)cc5)c4=O)cc3F)ccnc2cc1OCCCN1CCOCC1`, for which the pIC50 in experiment [1] is 5.38; in experiment [2], 5.70; in experiment [3] it was 6.21; in [4] it was 8.00.
Turning to `COc1cc2c(Oc3ccc(NC(=O)c4cc5cccnc5n(-c5ccc(F)c(Cl)c5)c4=O)cc3F)ccnc2cc1OCCCN1CCOCC1`, the values for the pIC50 in [1], in [2] and in experiment [3] were less than 4.40, 5.01 and 5.95, respectively.
As to `COc1cc2c(Oc3ccc(NC(=O)c4cc5cccnc5n(-c5ccc(Cl)cc5)c4=O)cc3F)ccnc2cc1OCCCN1CCOCC1`, the pIC50 in [1] was 5.37; in experiment [2], less than 4.40; in experiment [3] it was 5.49.
With `COc1cc2c(Oc3ccc(NC(=O)c4cc5cccnc5n(-c5ccc(F)cc5)c4=O)cc3F)ccnc2cc1OCCCN1CCOCC1`, the pIC50 was 5.62 in experiment [1], 6.12 in [2], 5.75 in experiment [3] and 8.10 in experiment [4].
`COc1cc2c(Oc3ccc(NC(=O)c4cc5cccnc5n(-c5ccc(F)cc5)c4=O)cc3F)ccnc2cc1OCCCN1CCN(C)CC1`: the pIC50 in experiment [9] is 8.36; in experiment [10] it was less than 5.00; in experiment [11], 7.99; in [12] it was 8.27; in [13], 6.74; in experiment [4], 8.63. The pIC50 in experiment [14] is 7.71; in experiment [15] it was 6.70.
